What was measured:
[1] = system: lumen of tumor blood vessels of LLC cell tumors; experiment: Structural changes in lumen of tumor blood vessels (scanning electron microscopy); assay type: in vivo; conditions: LLC tumor-bearing mice, LPA 3 mg/kg i.p., 24 hours after administration
Method: LLC cells were subcutaneously inoculated into C57BL/6 NCrSlc mice aged 8 weeks (females, SLC, Inc.) in the same manner as in Example 1. An LPA administration solution was prepared in the same manner as in Example 1. Mice on day 9 post-inoculation of LLC cells (individuals with a tumor volume of 60 to 80 mm^3) were subjected to the experiment. The mice were divided into two groups: control group and LPA group (n=3). LPA (3 mg/kg in 100 μL PBS) or PBS (100 μL) was administered intraperitoneally. At 24 hours after LPA or PBS administration, mice were perfusion fixed under anesthesia with pentobarbital (Kyoritsu Seiyaku Corporation). The fixative used was 0.1 M phosphate buffer (pH 7.4) containing 2% formaldehyde and 2.5% glutaraldehyde. Tumors were then harvested and immersed in the same fixative as that used for perfusion and shaken at 4° C. overnight. The specimens were further immersed in 0.1 M phosphate buffer (pH 7.4) containing 1% osmium tetroxide and 0.5% potassium ferrocyanide. The specimens were dehydrated in an ascending series of ethanol, then the alcohol was replaced with t-butyl alcohol and the specimens were freeze-dried.

[2] = system: Mouse pancreatic vascular endothelial cell line (MS-1); experiment: In vitro barrier function of endothelial cell-cell junctions (ECIS-Zθ, resistance between cells Rb); assay type: cell-based; conditions: MS-1 cells, 10 μM
Method: In vitro barrier function of the cell-cell junctions of vascular endothelial cells in the presence of LPA or VPC 31144 (S) was analyzed using a real-time cell ECIS-Zθ analyzer (Applied Biophysics).
LPA and VPC 31144 (S) were each dissolved in 50% ethanol as a 10 mM LPA stock solution and stored at −30° C. Before use, the LPA stock solution was thawed and homogenized with an ultrasonic cleaner (SND Co., Ltd.) for 1 minute. The solution was diluted in a serum-free culture medium supplemented with 0.1% BSA to a concentration of 10 μM.
Mouse pancreatic vascular endothelial cell line (MS-1) was used. The cells were suspended in DMEM (Sigma) containing 5% FBS. The cell suspension was seeded on a well plate with electrodes (8W10E+, 8 wells) specially designed for the analyzer at a density of 1×10^5 cells in 400 μL per well, and the cells were cultured overnight in an incubator to confluence. The medium was replaced by serum-free culture medium containing 0.1% BSA, and the cells were incubated for 4 hours. The medium was replaced by culture medium (serum-free culture medium containing 0.1% BSA) containing 10 μM LPA or VPC 31144 (S). The medium of the control cultures was replaced by serum-free culture medium containing 0.1% BSA. After replacement of the medium, resistance between cells (Rb) was measured in real time to evaluate the barrier function.

[3] = system: Mouse colon cancer colon 26 cells; experiment: Combined administration of LPA and oxaliplatin, tumor growth in colon 26 cell tumor-bearing mice; assay type: in vivo; conditions: colon 26 tumors in BALB/c mice; LPA 3 mg/kg i.p.; oxaliplatin 1.5 mg/kg i.p.
Method: (§1) LLC cells were subcutaneously inoculated into C57BL/6 NCrSlc mice aged 8 weeks in the same manner as in Example 1. An LPA administration solution was prepared in the same manner as in Example 1. The anticancer drug used was 5-FU (Kyowa Hakko Kirin Co., Ltd.). The 5-FU was prepared as a solution in physiological saline (Otsuka Pharmaceutical Co., Ltd.). On day 7 post-inoculation of LLC cells, mice with a tumor volume of 30 to 50 mm^3 were selected and subjected to the test. The mice were divided into four groups: control group, 5-FU group, LPA group and 5-FU/LPA group (n=3). LPA (3 mg/kg in 100 μL PBS) or 5-FU (100 mg/kg in 100 μL PBS) or PBS (100 μL) was administered intraperitoneally. To 5-FU/LPA group, both LPA and 5-FU were administered intraperitoneally. LPA and PBS were administered once daily for consecutive seven days. 5-FU was administered twice in total, once a week for two weeks (on days 7 and 14 post-inoculation). The tumor size was measured over time after start of administration. The tumor volume was calculated by the formula: volume=length×width×height×0.5. Mice at 2 weeks after start of administration were photographed with a digital camera under anesthesia with pentobarbital. The tumors were harvested and photographed with a digital camera.
(§2) Mouse colon cancer colon 26 cells were used. […]

[4] = system: Mouse colon cancer colon 26 cells; experiment: Combined administration of LPA and 5-FU, tumor growth in colon 26 cell tumor-bearing mice; assay type: in vivo; conditions: colon 26 tumors in BALB/c mice; LPA 3 mg/kg i.p. once daily for seven days; 5-FU 100 mg/kg i.p. on days 7 and 14
Method: as §1, §2

[5] = system: newly formed blood vessels with increased permeability; experiment: Hindlimb ischemia model, edema (hindlimb circumference); assay type: in vivo, mice; conditions: LPA 3 mg/kg i.p. once daily for three days, 24 hours after final administration, vs control
From the text: A hindlimb ischemia model is used as a pathological model of Buerger's disease and chronic arteriosclerosis obliterans. In the production of such a model, a blood vessel in the hindlimb of a mouse is dissected to induce ischemia in the region supplied by the blood vessel. The surgical dissection also causes inflammation. The ischemia and inflammation induce angiogenesis. The newly formed blood vessels have increased permeability, which induces edema in the muscles of the hindlimb. An experiment was performed to determine whether LPA inhibits such increased permeability of newly formed blood vessels induced by inflammation or ischemia.
C57BL/6 NCrSlc mice aged 6 weeks (females, SLC, Inc.) were used. An incision was made in the inguinal skin of the right hindlimb under anesthesia with pentobarbital (Kyoritsu Seiyaku Corporation). The femoral vein was ligated at the proximal end, and the saphenous artery and vein were ligated at the distal end. The arteries and veins were excised along with their side branches. The skin incision was closed with a sterilized surgical suture (Natsume Seisakusho). The animal was placed in a 37° C. incubator until the animal recovered from anesthesia. […] At 24 hours after the final administration, the hindlimb circumference was measured.

## lysophosphatidic acid [LPA]
[1]
  intraluminal surface of tumor blood vessels: the intraluminal surface of the blood vessels was very smooth
[2]
  duration of the increased barrier function: the increased barrier function in endothelial cells was maintained over a long period of time
[2]; serum-free medium with 0.1% BSA, vs control
  electric resistance (Rb), barrier function in endothelial cells: increased the electric signals as compared with the control
[3]
  tumor growth (tumor volume): some inhibitory effects on tumor growth as compared with the control, up to day 17 post-inoculation
[4]
  tumor growth (tumor volume): some inhibitory effects on tumor growth as compared with the control, up to day 17 post-inoculation
[5]
  hindlimb circumference (edema): significantly reduced

Source: patent US20170112861A1, “DRUG DELIVERY ENHANCER COMPRISING SUBSTANCE FOR ACTIVATING LYSOPHOSPHOLIPID RECEPTORS” (Osaka University, priority 2014, published 2017)
